Results from ChEMBL document CHEMBL3885881, “DrugMatrix”.

Organism: Rattus norvegicus
Assay: DrugMatrix - Regimen: Daily Repeat
Format: toxicity, organism-based, Sprague-Dawley
Design: regimen Daily Repeat, gender Male, age 6-8 weeks
Details: in vivo, po, route oral GAVAGE, vehicle .5 % CMC; for ABSOLUTE BASOPHIL / ABSOLUTE EOSINOPHIL / ABSOLUTE LYMPHOCYTE / ABSOLUTE MONOCYTE / ABSOLUTE SEGMENTED NEUTROPHIL / BASOPHIL / EOSINOPHIL / ERYTHROCYTE COUNT / HEMATOCRIT / HEMOGLOBIN / LEUKOCYTE COUNT / LYMPHOCYTE / MEAN CORPUSCULAR HEMOGLOBIN / MEAN CORPUSCULAR HEMOGLOBIN CONCENTRATION / MEAN CORPUSCULAR VOLUME / MONOCYTE / NEUTROPHIL / NUCLEATED RED BLOOD CELLS / PLATELET COUNT: tissue Blood; for ALANINE AMINOTRANSFERASE / ALBUMIN / ALKALINE PHOSPHATASE / ASPARTATE AMINOTRANSFERASE / BLOOD UREA NITROGEN / CARBON DIOXIDE / CHLORIDE / CHOLESTEROL / CREATINE PHOSPHOKINASE / CREATININE / GLUCOSE / LACTATE DEHYDROGENASE / LIPASE / PHOSPHORUS / POTASSIUM / SODIUM / TOTAL BILIRUBIN / TOTAL PROTEIN / URIC ACID: tissue Plasma
[1] = 50 mg/kg, 120 h, dose level Low, time 5 day
[2] = 2500 mg/kg, 72 h, dose level High, time 3 day
[3] = 2500 mg/kg, 120 h, dose level High, time 5 day

SMILES: CC(/C=C1\SC(=S)N(CC(=O)O)C1=O)=C\c1ccccc1
- ABSOLUTE BASOPHIL [1]: 0 CELLS/uL
- ABSOLUTE EOSINOPHIL [1]: 0 CELLS/uL
- ABSOLUTE LYMPHOCYTE [1]: 8755.33 CELLS/uL
- ABSOLUTE MONOCYTE [1]: 98 CELLS/uL
- ABSOLUTE SEGMENTED NEUTROPHIL [1]: 946.67 CELLS/uL
- BASOPHIL [1]: 0%
- EOSINOPHIL [1]: 0%
- ERYTHROCYTE COUNT [1]: 5.47 x10E6/uL
- HEMATOCRIT [1]: 34.63%
- HEMOGLOBIN [1]: 14.03 G/DL
- LEUKOCYTE COUNT [1]: 9.8 x10E3/uL
- LYMPHOCYTE [1]: 89.67%
- MEAN CORPUSCULAR HEMOGLOBIN [1]: 25.7 pg
- MEAN CORPUSCULAR HEMOGLOBIN CONCENTRATION [1]: 40.53 G/DL
- MEAN CORPUSCULAR VOLUME [1]: 63.33 fL
- MONOCYTE [1]: 1%
- NEUTROPHIL [1]: 9.33%
- NUCLEATED RED BLOOD CELLS [1]: 0 /100WBC
- PLATELET COUNT [1]: 1226 x10E3/uL
- ALANINE AMINOTRANSFERASE [1]: 61.33 u/L
- ALBUMIN [1]: 4.5 G/DL
- ALKALINE PHOSPHATASE [1]: 418.33 u/L
- ASPARTATE AMINOTRANSFERASE [1]: 81.33 u/L
- BLOOD UREA NITROGEN [1]: 14.33 mg/dL
- CARBON DIOXIDE [1]: 34 mmol/L
- CHLORIDE [1]: 100.67 MEQ/L
- CHOLESTEROL [1]: 81 mg/dL
- CREATINE PHOSPHOKINASE [1]: 171 u/L
- CREATININE [1]: 0.12 mg/dL
- GLUCOSE [1]: 147.33 mg/dL
- LACTATE DEHYDROGENASE [1]: 106.67 u/L
- LIPASE [1]: 10 u/L
- PHOSPHORUS [1]: 10.83 mg/dL
- POTASSIUM [1]: 6.07 MEQ/L
- SODIUM [1]: 143.73 MEQ/L
- TOTAL BILIRUBIN [1]: 0.2 mg/dL
- TOTAL PROTEIN [1]: 6.37 G/DL
- URIC ACID [1]: 0.87 mg/dL
- ABSOLUTE BASOPHIL [2]: 0 CELLS/uL
- ABSOLUTE EOSINOPHIL [2]: 58.67 CELLS/uL
- ABSOLUTE LYMPHOCYTE [2]: 8116.67 CELLS/uL
- ABSOLUTE MONOCYTE [2]: 158 CELLS/uL
- ABSOLUTE SEGMENTED NEUTROPHIL [2]: 700 CELLS/uL
- BASOPHIL [2]: 0%
- EOSINOPHIL [2]: 0.67%
- ERYTHROCYTE COUNT [2]: 6.27 x10E6/uL
- HEMATOCRIT [2]: 39%
- HEMOGLOBIN [2]: 15.47 G/DL
- LEUKOCYTE COUNT [2]: 9.03 x10E3/uL
- LYMPHOCYTE [2]: 90%
- MEAN CORPUSCULAR HEMOGLOBIN [2]: 24.83 pg
- MEAN CORPUSCULAR HEMOGLOBIN CONCENTRATION [2]: 39.77 G/DL
- MEAN CORPUSCULAR VOLUME [2]: 62.43 fL
- MONOCYTE [2]: 1.67%
- NEUTROPHIL [2]: 7.67%
- NUCLEATED RED BLOOD CELLS [2]: 0 /100WBC
- PLATELET COUNT [2]: 1417 x10E3/uL
- ALANINE AMINOTRANSFERASE [2]: 61.33 u/L
- ALBUMIN [2]: 3.93 G/DL
- ALKALINE PHOSPHATASE [2]: 381 u/L
- ASPARTATE AMINOTRANSFERASE [2]: 133.33 u/L
- BLOOD UREA NITROGEN [2]: 25 mg/dL
- CARBON DIOXIDE [2]: 19 mmol/L
- CHLORIDE [2]: 105.33 MEQ/L
- CHOLESTEROL [2]: 46 mg/dL
- CREATINE PHOSPHOKINASE [2]: 544.33 u/L
- CREATININE [2]: 0.22 mg/dL
- GLUCOSE [2]: 130.33 mg/dL
- LACTATE DEHYDROGENASE [2]: 248.67 u/L
- LIPASE [2]: 9.33 u/L
- PHOSPHORUS [2]: 11.67 mg/dL
- POTASSIUM [2]: 5.57 MEQ/L
- SODIUM [2]: 142.23 MEQ/L
- TOTAL BILIRUBIN [2]: 0.27 mg/dL
- TOTAL PROTEIN [2]: 5.4 G/DL
- URIC ACID [2]: 1.83 mg/dL
- ABSOLUTE BASOPHIL [3]: 0 CELLS/uL
- ABSOLUTE EOSINOPHIL [3]: 0 CELLS/uL
- ABSOLUTE LYMPHOCYTE [3]: 3825 CELLS/uL
- ABSOLUTE MONOCYTE [3]: 102 CELLS/uL
- ABSOLUTE SEGMENTED NEUTROPHIL [3]: 1173 CELLS/uL
- BASOPHIL [3]: 0%
- EOSINOPHIL [3]: 0%
- ERYTHROCYTE COUNT [3]: 7.26 x10E6/uL
- HEMATOCRIT [3]: 41.8%
- HEMOGLOBIN [3]: 16.5 G/DL
- LEUKOCYTE COUNT [3]: 5.1 x10E3/uL
- LYMPHOCYTE [3]: 75%
- MEAN CORPUSCULAR HEMOGLOBIN [3]: 22.7 pg
- MEAN CORPUSCULAR HEMOGLOBIN CONCENTRATION [3]: 39.5 G/DL
- MEAN CORPUSCULAR VOLUME [3]: 57.6 fL
- MONOCYTE [3]: 2%
- NEUTROPHIL [3]: 23%
- NUCLEATED RED BLOOD CELLS [3]: 0 /100WBC
- PLATELET COUNT [3]: 1575 x10E3/uL
- ALANINE AMINOTRANSFERASE [3]: 38 u/L
- ALBUMIN [3]: 3.9 G/DL
- ALKALINE PHOSPHATASE [3]: 162 u/L
- ASPARTATE AMINOTRANSFERASE [3]: 70 u/L
- BLOOD UREA NITROGEN [3]: 24 mg/dL
- CARBON DIOXIDE [3]: 25 mmol/L
- CHLORIDE [3]: 100 MEQ/L
- CHOLESTEROL [3]: 64 mg/dL
- CREATINE PHOSPHOKINASE [3]: 119 u/L
- CREATININE [3]: 0.1 mg/dL
- GLUCOSE [3]: 89 mg/dL
- LACTATE DEHYDROGENASE [3]: 148 u/L
- LIPASE [3]: 7 u/L
- PHOSPHORUS [3]: 15.2 mg/dL
- POTASSIUM [3]: 4.09 MEQ/L
- SODIUM [3]: 144.1 MEQ/L
- TOTAL BILIRUBIN [3]: 0.5 mg/dL
- TOTAL PROTEIN [3]: 5.9 G/DL
- URIC ACID [3]: 2.1 mg/dL
